Test [1] deals with Aorta. The test is described as follows: Vasorelaxant activity in Sprague-Dawley rat aortic rings assessed as reduction in phenylephrine-induced contractions by measuring maximum relaxation magnitude relative to control. Type of test: functional.
A further test deals with HCT-116. Description: Cytotoxicity against human HCT116 cells after 72 hrs by neutral red uptake assay. In kind it is cell-based. Particulars: HCT-116, 72 h.
The test system of a further test is A549. Description: Cytotoxicity against human A549 cells after 72 hrs by neutral red uptake assay. Type of test: cell-based. Particulars: A549, 72 h.
In test [2] the test system is Aorta. The test is described as follows: Vasorelaxant activity in Sprague-Dawley rat aortic rings assessed as reduction in phenylephrine-induced contractions. In kind it is functional, tissue-based.
Another test relates to MCF7. Description: Cytotoxicity against human MCF7 cells after 72 hrs by neutral red uptake assay. In kind it is cell-based. The note with it: MCF7, 72 h.

For the compound `COc1ccc(CCNC(CCc2ccc(OC)c(OC)c2)Cc2ccc(OC)c(OC)c2)cc1OC` (stereo not drawn), the Emax in the test with Aorta [1] was 119%. In addition, the IC50 with HCT-116, in the test with A549 and in the test on MCF7 was above 10 µM throughout. In the test with Aorta [2], the Activity result was “Dose-dependent effect”. Besides, the EC50 in the test with Aorta [2] stood at 2.01 µM.
Take `CC(CCc1ccc(O)cc1)NCCc1ccc(O)c(O)c1` (stereo not drawn) [DOBUTAMINE]: in the test on Aorta [1], the Emax stood at 92%. Further, the EC50 with Aorta [2] came to 2.5 µM.
As for `COc1ccc(CCC(Cc2ccc(OC)c(OC)c2)N(C)CCc2ccc(OC)c(OC)c2)cc1OC` (stereo not drawn), the Emax in the test on Aorta [1] is 106%. Besides, the IC50 in the test on HCT-116, in the test with A549 and with MCF7 was above 10 µM each time. In the test with Aorta [2], the Activity entry was “Dose-dependent effect”. For the same compound, the EC50 in the test on Aorta [2] stood at 0.96 µM.
For the compound `CC[C@]1(O)C[C@@H]2CN(CCc3c([nH]c4ccccc34)[C@@](C(=O)OC)(c3cc4c(cc3OC)N(C)[C@H]3[C@@](O)(C(=O)OC)[C@H](OC(C)=O)[C@]5(CC)C=CCN6CC[C@]43[C@@H]65)C2)C1` [VINBLASTINE], the IC50 stood at 0.0005 µM in the test with HCT-116, 0.01 µM in the test with A549 and 0.001 µM with MCF7.
In the case of `COc1ccc(CCC(Cc2ccc(OC)c(OC)c2)NCCc2ccc3c(c2)OCO3)cc1OC` (stereo not drawn), in the test with Aorta [1], the maximal response (Emax) came to 120%. Further, in the test with Aorta [2], the Activity result was “Dose-dependent effect” and the EC50 came out at 1.88 µM.
The corresponding values for `COc1ccc(CCC(Cc2ccc(OC)c(OC)c2)NCCc2cc(OC)c3c(c2)OCO3)cc1OC` (stereo not drawn) are 116%, “Dose-dependent effect” and 2.1 µM.
